In brackets after ≈: the same amount, converted by molar mass.
Columns and labels:
iNOS = test: Inhibition of iNOS (intracellular NO production) in RAW 264.7 macrophages; type: cell-based; conditions: Mus musculus, RAW264.7; RAW 264.7 cells; NA = no activity at 25 µg/mL (pure compounds) or 100 µg/mL (extracts)
Experimental: The extracts and isolated compounds of C. villosus were evaluated in terms of their interaction with cellular targets related to inflammation and metabolic disorders, such as iNOS and NF-κB. The inhibition of intracellular NO production as a result of iNOS activity was assayed in mouse macrophages (RAW 264.7cells). Cytotoxicity of test samples to macrophages was also determined in parallel to check if the inhibition of iNOS was due to cytotoxic effects.

NF-κB = test: Reporter gene assay for the inhibition of NF-κB; type: cell-based; conditions: PMA-treated cells, luciferase reporter; NA = no activity at 25 µg/mL (pure compounds) or 100 µg/mL (extracts); read-out: Inhibition of NF-kB IC50
Experimental: Reporter gene assay for the inhibition of NF-κB Activity was performed as described earlier. In brief, cells transfected with NF-κB luciferase plasmid construct were plated in 96-well plates at a density of 1.25 × 10^5 cells/well. After 24 h, cells were treated with the test compounds and, after incubating for 30 min, phorbol 12-myristate 13-acetate (PMA) (Sigma-Aldrich, Burlington MA, USA) (70 ng/mL) was added and further incubated for 6−8 h. Luciferase activity was measured as described above. Percent decrease in luciferase activity was calculated relative to the vehicle control. Parthenolide (Sigma-Aldrich, Burlington MA, USA) was used as a positive control.

Candida albicans = test: Antifungal assay C. albicans; type: cell-based; conditions: pure compounds
Experimental: (§1) Extracts and pure compounds were tested for their antimicrobial activity against Staphylococcus aureus, methicillin-resistant S. aureus (MRSA), Escherichia coli, Pseudomonas aeruginosa, and Mycobacterium intracellulare. The antifungal activities were evaluated against a panel of pathogenic fungi, including Candida albicans, C. glabrata, C. krusei, Aspergillus fumigatus, and Cryptococcus neoformans, associated with opportunistic infections.

Cryptococcus neoformans = test: Antifungal assay C. neoformans; type: cell-based; conditions: pure compounds
Experimental: as §1

Staphylococcus aureus = test: Antibacterial assay S. aureus; type: cell-based; conditions: pure compounds
Experimental: as §1

Escherichia coli = test: Antibacterial assay E. coli; type: cell-based; conditions: pure compounds
Experimental: as §1

Pseudomonas aeruginosa = test: Antibacterial assay P. aeruginosa; type: cell-based; conditions: pure compounds
Experimental: as §1

P. falciparum (D6 Clone) = test: Antimalarial assay, chloroquine-sensitive D6 clone; type: cell-based, Plasmodium falciparum; conditions: selectivity index = IC50 for cytotoxicity/IC50 for antimalarial activity
Text: (§2) The in vitro antileishmanial and antitrypanosomal assays were done on cell cultures of L. donovani promastigotes, axenic amastigotes, THP1-amastigotes, and Trypanosoma brucei trypomastigotes by Alamar Blue assays. The conditions for seeding the THP1 cells, exposure to the test samples, and evaluation of cytotoxicity were the same as described in parasite-rescue and transformation assay. IC50 and IC90 values were computed from the dose response curves using XLfit software (XLfit 5.3.1, IDBS analytical, Boston MA, USA). DFMO (difluoromethylornithine) was used as the positive control. The antiprotozoal activity of C. villosus extracts and isolated compounds were evaluated in vitro against L. donovani promastigotes, axenic amastigotes, and intracellular amastigotes in THP1 cells. The extracts and some isolated compounds were also evaluated against T. brucei trypomastigote forms. All the extracts and compounds were simultaneously tested against THP1 cell for determination of general cytotoxicity. The extracts and isolated compounds were also evaluated for their antimalarial activity against chloroquine-sensitive (D6, Sierra Leone) and chloroquine-resistant strains (W2, Indochina) strains of Plasmodium falciparum. Furthermore, they were tested for cytotoxicity against the Vero cell line.

P. falciparum (W2 Clone) = test: Antimalarial assay, chloroquine-resistant W2 clone; type: cell-based, Plasmodium falciparum; conditions: selectivity index = IC50 for cytotoxicity/IC50 for antimalarial activity
Text: as §2

[1] = Cytotoxicity against Vero cell line (antimalarial counterscreen); type: cell-based; conditions: African green monkey
Text: as §2

δ opioid receptor = δ opioid receptor (Homo sapiens, UniProt P41143); test: Radioligand displacement δ opioid receptor; type: binding
κ opioid receptor = κ opioid receptor (Homo sapiens, UniProt P41145); type: binding
μ opioid receptor = μ opioid receptor (Homo sapiens, UniProt P35372); type: binding
μ opioid receptor, sequence (P35372 whole entry): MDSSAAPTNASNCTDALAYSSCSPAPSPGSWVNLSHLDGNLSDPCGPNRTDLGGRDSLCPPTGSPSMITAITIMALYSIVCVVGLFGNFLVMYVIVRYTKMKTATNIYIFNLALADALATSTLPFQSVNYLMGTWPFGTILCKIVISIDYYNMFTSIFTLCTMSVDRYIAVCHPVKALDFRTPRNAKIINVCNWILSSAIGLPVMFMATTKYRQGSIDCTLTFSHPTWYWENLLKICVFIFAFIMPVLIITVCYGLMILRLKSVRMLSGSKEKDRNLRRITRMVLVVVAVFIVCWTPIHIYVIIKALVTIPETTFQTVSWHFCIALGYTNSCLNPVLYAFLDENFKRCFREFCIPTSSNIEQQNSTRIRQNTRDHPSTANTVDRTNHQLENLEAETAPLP

κ opioid receptor, sequence (P41145 whole entry): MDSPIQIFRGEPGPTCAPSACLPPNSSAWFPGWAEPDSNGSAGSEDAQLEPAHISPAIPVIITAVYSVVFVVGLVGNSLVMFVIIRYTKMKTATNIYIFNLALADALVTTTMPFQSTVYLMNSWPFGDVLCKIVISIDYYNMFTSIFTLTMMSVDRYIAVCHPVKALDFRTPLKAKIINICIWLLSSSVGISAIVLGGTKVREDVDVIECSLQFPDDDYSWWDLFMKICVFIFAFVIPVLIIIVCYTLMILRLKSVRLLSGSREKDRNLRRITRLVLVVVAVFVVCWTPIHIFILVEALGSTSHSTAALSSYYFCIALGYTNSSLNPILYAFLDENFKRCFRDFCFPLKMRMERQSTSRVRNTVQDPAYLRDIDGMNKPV
δ opioid receptor, sequence (P41143 whole entry): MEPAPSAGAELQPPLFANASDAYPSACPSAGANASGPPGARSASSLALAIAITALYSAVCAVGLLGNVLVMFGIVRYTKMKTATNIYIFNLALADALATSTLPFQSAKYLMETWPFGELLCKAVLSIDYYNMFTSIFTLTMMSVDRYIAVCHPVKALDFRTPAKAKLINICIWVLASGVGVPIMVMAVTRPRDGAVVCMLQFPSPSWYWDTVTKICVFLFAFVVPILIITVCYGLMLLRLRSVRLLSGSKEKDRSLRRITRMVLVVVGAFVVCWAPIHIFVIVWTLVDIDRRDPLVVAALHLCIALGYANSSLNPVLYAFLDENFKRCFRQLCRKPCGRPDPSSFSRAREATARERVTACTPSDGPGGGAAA

Structure (SMILES): O=c1cc(-c2ccccc2)oc2cc(O)cc(O)c12 [Compound 2, chrysin]
- IC50 (iNOS): > 25 µg/mL
- IC50 (NF-κB): 38 µg/mL (≈ 149 µM)
- IC50 (Candida albicans): > 20 µg/mL
- IC50 (Cryptococcus neoformans): > 20 µg/mL
- IC50 (Staphylococcus aureus): > 20 µg/mL
- IC50 (Escherichia coli): > 20 µg/mL
- IC50 (Pseudomonas aeruginosa): > 20 µg/mL
- SI (first SI column of Table 7, presumably D6) (P. falciparum (D6 Clone)): 1
- SI (second SI column of Table 7, presumably W2) (P. falciparum (W2 Clone)): 1
- IC50 [1]: > 4.76 µg/mL
- Opioid Receptors (%) δ radioligand displacement (δ opioid receptor): 8.7%
- Opioid Receptors (%) κ radioligand displacement (κ opioid receptor): 12.8%
- Opioid Receptors (%) μ radioligand displacement (μ opioid receptor): 12.2%
